Measurements published in patent US20230002359A1, “PESTICIDALLY ACTIVE FUSED BICYCLIC HETEROAROMATIC COMPOUNDS” (priority 2019, published 2023).

Legend:
Type in all cases: in vivo
[1] = system: Plutella xylostella (Diamond Back Moth); test: Example B4: Plutella xylostella (diamond back moth), artificial diet, eggs, 24-well; conditions: 192 h, application rate of 200 ppm, 8 days after infestation, eggs, read-out: control in at least one of the two categories (mortality or growth inhibition)
Experimental: 24-well microtiter plates with artificial diet were treated with aqueous test solutions prepared from 10′000 ppm DMSO stock solutions by pipetting. After drying, Plutella eggs were pipetted through a plastic stencil onto a gel blotting paper and the plate was closed with it. The samples were assessed for mortality and growth inhibition in comparison to untreated samples 8 days after infestation.

[2] = system: Diabrotica Balteata (Corn Root Worm); test: Example B1: Diabrotica balteata (corn root worm), maize sprouts sprayed, L2 larvae; conditions: 96 h, application rate of 200 ppm, 4 days after infestation, L2 larvae, read-out: control in at least one of the two categories (mortality or growth inhibition)
Method in brief: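 Read-out is mortality plus growth inhibition relative to untreated controls, assessed 4 days after infestation. Sprouts resting on agar are sprayed with aqueous solutions derived from 10′000 ppm DMSO stocks and left to dry before L2 larvae (6 to 10 per well) are added.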

[3] = system: Chilo suppressalis (Striped Rice Stemborer); test: Example B3: Chilo suppressalis (striped rice stemborer), artificial diet, L2 larvae; conditions: 144 h, application rate of 200 ppm, 6 days after infestation, L2 larvae, read-out: control in at least one of the three categories (mortality, anti-feedant effect, or growth inhibition)
Method in brief: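 Scoring covers mortality, anti-feedant effect and growth inhibition at 6 days post-infestation, relative to untreated diet, with activity defined as at least one category above untreated. Test solutions were aqueous, made from 10'000 ppm DMSO stocks, and applied to artificial diet before drying and infestation with L2 larvae.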

[4] = system: Myzus persicae (Green Peach Aphid); test: Example B6: Myzus persicae (green peach aphid) intrinsic activity, sucrose solution; conditions: 120 h, test rate of 12 ppm, 5 days after infestation, intrinsic activity, read-out: mortality
Experimental: Test compounds prepared from 10′000 ppm DMSO stock solutions were applied by pipette into 24-well microtiter plates and mixed with sucrose solution. The plates were closed with a stretched Parafilm. A plastic stencil with 24 holes was placed onto the plate and infested pea seedlings were placed directly on the Parafilm. The infested plate was closed with a gel blotting paper and another plastic stencil and then turned upside down. The samples were assessed for mortality 5 days after infestation.

[5] = system: Spodoptera littoralis (Egyptian Cotton Leaf Worm); test: Example B7: Spodoptera littoralis (Egyptian cotton leaf worm), cotton leaf discs sprayed, L1 larvae; conditions: foliar, 72 h, application rate of 200 ppm, 3 days after infestation, L1 larvae, read-out: control in at least one of the three categories (mortality, anti-feedant effect, or growth inhibition)
Method in brief: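 Five L1 larvae per sprayed, dried cotton leaf disc on agar. Activity is counted when mortality, anti-feedant effect or growth inhibition exceeds the untreated sample at day 3.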

C[C@@H](c1ncnn1-c1ncccn1)N(C)c1ncnc2c(C(F)(F)F)cc(Br)cc12 [P.208, 6-bromo-N-methyl-N-[(1S)-1-(2-pyrimidin-2-yl-1,2,4-triazol-3-yl)ethyl]-8-(trifluoromethyl)quinazolin-4-amine]
≥ 80%: percent control (mortality or growth inhibition) at 200 ppm [1] | percent control (mortality or growth inhibition) at 200 ppm [2] | percent control (mortality, anti-feedant effect or growth inhibition) at 200 ppm [3] | mortality at 12 ppm [4] | percent control (mortality, anti-feedant effect or growth inhibition) at 200 ppm [5]

CC(Nc1ncnc2c(Br)cc(OC(F)(F)F)cc12)c1nccnc1-c1ncccn1 (stereo not drawn) [P.12, 8-bromo-N-[1-(3-pyrimidin-2-ylpyrazin-2-yl)ethyl]-6-(trifluoromethoxy)quina-zolin-4-amine]
≥ 80%: percent control (mortality or growth inhibition) at 200 ppm [1] | percent control (mortality or growth inhibition) at 200 ppm [2] | percent control (mortality, anti-feedant effect or growth inhibition) at 200 ppm [3] | mortality at 12 ppm [4] | percent control (mortality, anti-feedant effect or growth inhibition) at 200 ppm [5]

CC(Nc1ncnc2c(OC(F)(F)F)cc(Br)cc12)c1nccnc1-c1ncccn1 (stereo not drawn) [P.11, 6-bromo-N-[1-(3-pyrimidin-2-ylpyrazin-2-yl)ethyl]-8-(trifluoromethoxy)quina-zolin-4-amine]
≥ 80%: percent control (mortality or growth inhibition) at 200 ppm [1] | percent control (mortality or growth inhibition) at 200 ppm [2] | percent control (mortality, anti-feedant effect or growth inhibition) at 200 ppm [3] | mortality at 12 ppm [4] | percent control (mortality, anti-feedant effect or growth inhibition) at 200 ppm [5]

CC(c1nccnc1-c1ncccn1)N(C)c1ncnc2c(C(F)(F)F)cc(Cl)cc12 (stereo not drawn) [P.132, 6-chloro-N-methyl-N-[1-(3-pyrimidin-2-ylpyrazin-2-yl)ethyl]-8-(trifluoromethyl)quinazolin-4-amine]
≥ 80%: percent control (mortality or growth inhibition) at 200 ppm [1] | percent control (mortality or growth inhibition) at 200 ppm [2] | percent control (mortality, anti-feedant effect or growth inhibition) at 200 ppm [3] | mortality at 12 ppm [4] | percent control (mortality, anti-feedant effect or growth inhibition) at 200 ppm [5]

C[C@@H](c1ncnn1-c1ccc(C#N)cn1)N(C)c1ncnc2c(C(F)(F)F)cc(C3CC3)cc12 [P.177, 6-[5-[(1S)-1-[[6-cyclopropyl-8-(trifluoromethyl)quinazolin-4-yl]-methyl-amino]ethyl]-1,2,4-triazol-1-yl]pyridine-3-carbonitrile]
≥ 80%: percent control (mortality or growth inhibition) at 200 ppm [1] | percent control (mortality or growth inhibition) at 200 ppm [2] | percent control (mortality, anti-feedant effect or growth inhibition) at 200 ppm [3] | mortality at 12 ppm [4] | percent control (mortality, anti-feedant effect or growth inhibition) at 200 ppm [5]

CC(c1ncnn1-c1ccc(C#N)cn1)N(C)c1ncnc2c(OC(F)F)cc(Br)cc12 (stereo not drawn) [P.230, 6-[5-[1-[[6-bromo-8-(difluoromethoxy)quinazo-lin-4-yl]-methyl-amino]ethyl]-1,2,4-triazol-1-yl]pyridine-3-carbonitrile]
≥ 80%: percent control (mortality or growth inhibition) at 200 ppm [1] | percent control (mortality or growth inhibition) at 200 ppm [2] | percent control (mortality, anti-feedant effect or growth inhibition) at 200 ppm [3] | mortality at 12 ppm [4] | percent control (mortality, anti-feedant effect or growth inhibition) at 200 ppm [5]

CC(Nc1ncnc2c(Br)cc(Cl)cc12)c1ncnn1-c1ncccn1 (stereo not drawn) [P.171, 8-bromo-6-chloro-N-[1-(2-pyrimidin-2-yl-1,2,4-triazol-3-yl)ethyl]quinazolin-4-amine]
≥ 80%: percent control (mortality or growth inhibition) at 200 ppm [1] | percent control (mortality or growth inhibition) at 200 ppm [2] | percent control (mortality, anti-feedant effect or growth inhibition) at 200 ppm [3] | mortality at 12 ppm [4] | percent control (mortality, anti-feedant effect or growth inhibition) at 200 ppm [5]

CC(Nc1ncnc2c(C(F)(F)F)cc(Br)cc12)c1ncnn1-c1ncccn1 (stereo not drawn) [P.44, 6-bromo-N-[1-(2-pyrimidin-2-yl-1,2,4-triazol-3-yl)ethyl]-8-(trifluoromethyl)quinazolin-4-amine]
≥ 80%: percent control (mortality or growth inhibition) at 200 ppm [1] | percent control (mortality or growth inhibition) at 200 ppm [2] | percent control (mortality, anti-feedant effect or growth inhibition) at 200 ppm [3] | mortality at 12 ppm [4] | percent control (mortality, anti-feedant effect or growth inhibition) at 200 ppm [5]

CC(Nc1ncnc2c(OC(F)F)cc(Br)cc12)c1nccnc1-c1ncccn1 (stereo not drawn) [P.32, 6-bromo-8-(difluoromethoxy)-N-[1-(3-pyrimidin-2-ylpyrazin-2-yl)ethyl]quinazolin-4-amine]
≥ 80%: percent control (mortality or growth inhibition) at 200 ppm [1] | percent control (mortality or growth inhibition) at 200 ppm [2] | percent control (mortality, anti-feedant effect or growth inhibition) at 200 ppm [3] | mortality at 12 ppm [4] | percent control (mortality, anti-feedant effect or growth inhibition) at 200 ppm [5]

CC(Nc1ncnc2c(Br)cc(OC(F)(F)F)cc12)c1ncnn1-c1ncccn1 (stereo not drawn) [P.229, 8-bromo-N-[1-(2-pyrimidin-2-yl-1,2,4-triazol-3-yl)ethyl]-6-(trifluoromethoxy)quinazo-line-4-amine]
≥ 80%: percent control (mortality or growth inhibition) at 200 ppm [1] | percent control (mortality or growth inhibition) at 200 ppm [2] | percent control (mortality, anti-feedant effect or growth inhibition) at 200 ppm [3] | mortality at 12 ppm [4] | percent control (mortality, anti-feedant effect or growth inhibition) at 200 ppm [5]

CC(c1ncnn1-c1ccc(OC(F)F)cn1)N(C)c1ncnc2c(C(F)(F)F)cc(Br)cc12 (stereo not drawn) [P.194, 6-bromo-N-[1-[2-[5-(difluoromethoxy)-2-pyridyl]-1,2,4-triazol-3-yl]ethyl]-N-methyl-8-(trifluoromethyl)quinazolin-4-amine]
≥ 80%: percent control (mortality or growth inhibition) at 200 ppm [1] | percent control (mortality or growth inhibition) at 200 ppm [2] | percent control (mortality, anti-feedant effect or growth inhibition) at 200 ppm [3] | mortality at 12 ppm [4] | percent control (mortality, anti-feedant effect or growth inhibition) at 200 ppm [5]

C[C@H](Nc1ncnc2c(C(F)(F)F)cc(Cl)cc12)c1ncnn1-c1ccc(C#N)cn1 [P.22, 6-[5-[(1S)-1-[[6-chloro-8-(trifluoromethyl)quinazolin-4-yl]amino]ethyl]-1,2,4-triazol-1-yl]pyridine-3-carbonitrile]
≥ 80%: percent control (mortality or growth inhibition) at 200 ppm [1] | percent control (mortality or growth inhibition) at 200 ppm [2] | percent control (mortality, anti-feedant effect or growth inhibition) at 200 ppm [3] | mortality at 12 ppm [4] | percent control (mortality, anti-feedant effect or growth inhibition) at 200 ppm [5]

CC(Nc1ncnc2c(Br)cc(Br)cc12)c1ncnn1-c1ncccn1 (stereo not drawn) [P.29, 6,8-dibromo-N-[1-(2-pyrimidin-2-yl-1,2,4-triazol-3-yl)ethyl]quinazolin-4-amine]
≥ 80%: percent control (mortality or growth inhibition) at 200 ppm [1] | percent control (mortality or growth inhibition) at 200 ppm [2] | percent control (mortality, anti-feedant effect or growth inhibition) at 200 ppm [3] | mortality at 12 ppm [4] | percent control (mortality, anti-feedant effect or growth inhibition) at 200 ppm [5]

C[C@H](Nc1ncnc2c(C(F)(F)F)cc(I)cc12)c1nccnc1-c1ccc(C#N)cn1 [P.162, 6-[3-[(1S)-1-[[6-iodo-8-(trifluoromethyl)quinazolin-4-yl]amino]ethyl]pyrazin-2-yl]pyridine-3-carbonitrile]
≥ 80%: percent control (mortality or growth inhibition) at 200 ppm [1] | percent control (mortality or growth inhibition) at 200 ppm [2] | percent control (mortality, anti-feedant effect or growth inhibition) at 200 ppm [3] | mortality at 12 ppm [4] | percent control (mortality, anti-feedant effect or growth inhibition) at 200 ppm [5]

CC(Nc1ncnc2c(C(F)(F)F)cc(Br)cc12)c1nccnc1-c1ncccn1 (stereo not drawn) [P.133, 6-bromo-N-[1-(3-pyrimidin-2-ylpyrazin-2-yl)ethyl]-8-(trifluoromethyl)quinazolin-4-amine]
≥ 80%: percent control (mortality or growth inhibition) at 200 ppm [1] | percent control (mortality or growth inhibition) at 200 ppm [2] | percent control (mortality, anti-feedant effect or growth inhibition) at 200 ppm [3] | mortality at 12 ppm [4] | percent control (mortality, anti-feedant effect or growth inhibition) at 200 ppm [5]
